Measured values reported in patent US8741911B2, “Raf inhibitor compounds” (Eli Lilly and Company, priority 2012, dated 2014).
Like-named read-outs stand apart in the source and are kept apart here.

Tests used:
[1] = tested on: phospho-ERK in A375 V600E cells; test: SureFire phospho-ERK AlphaScreen cellular assay; format: cell-based; settings: Homo sapiens, A-375, 1 hour treatment
Procedure: (§1) A375 V600E, WM-266-4 V600E, HCT-116 K-Ras mutant B-Raf wild type are from ATCC. The cellular activities are assessed by an ELISA assay commercially available from TGR Biosciences to measure the phospho-ERK levels of each cell type.
(§2) The cells in each well are then lysed with 50 μl lysis buffer from TGR Biosciences. The phospho-ERK activities are determined with SureFire phospho-ERK AlphaScreen assay kit from TGR Biosciences per manufacturer's instruction.

[2] = tested on: phospho-ERK in A375 V600E-PLX4032 resistant cells (A375-res); test: SureFire phospho-ERK AlphaScreen cellular assay; format: cell-based; settings: Homo sapiens, A-375, 1 hour treatment
Procedure: as §1, §2

[3] = tested on: phospho-ERK in HCT-116 (K-Ras mutant B-Raf wild type) cells; test: SureFire phospho-ERK AlphaScreen cellular assay; format: cell-based; settings: Homo sapiens, 1 hour treatment
Procedure: as §1, §2

[4] = tested on: phospho-ERK in WM-266-4 V600E cells; test: SureFire phospho-ERK AlphaScreen cellular assay; format: cell-based; settings: Homo sapiens, 1 hour treatment
Procedure: as §1, §2

COLO-829 = test: CellTiter-Glo proliferation and viability assay; format: cell-based; settings: Homo sapiens
H9 = test: CellTiter-Glo proliferation and viability assay; format: cell-based; settings: Homo sapiens
IM-9 = test: CellTiter-Glo proliferation and viability assay; format: cell-based; settings: Homo sapiens, read-out: Abs IC50
HuH-7 = test: CellTiter-Glo proliferation and viability assay; format: cell-based; settings: Homo sapiens, read-out: Rel IC50
DMS-53 = test: CellTiter-Glo proliferation and viability assay; format: cell-based; settings: Homo sapiens, read-out: Abs IC50
SW900 = test: CellTiter-Glo proliferation and viability assay; format: cell-based; settings: Homo sapiens
NCI-H1975 = test: CellTiter-Glo proliferation and viability assay; format: cell-based; settings: Homo sapiens
Hs746T = test: CellTiter-Glo proliferation and viability assay; format: cell-based; settings: Homo sapiens
C8166 = test: CellTiter-Glo proliferation and viability assay; format: cell-based; settings: Homo sapiens
AGS = test: CellTiter-Glo proliferation and viability assay; format: cell-based; settings: Homo sapiens
AsPC-1 = test: CellTiter-Glo proliferation and viability assay; format: cell-based; settings: Homo sapiens
CCRF-CEM = test: CellTiter-Glo proliferation and viability assay; format: cell-based; settings: Homo sapiens, read-out: Abs IC50
SK-HEP-1 = test: CellTiter-Glo proliferation and viability assay; format: cell-based; settings: Homo sapiens, SK-HEP1, read-out: Abs IC50
NCI-H522 = test: CellTiter-Glo proliferation and viability assay; format: cell-based; settings: Homo sapiens
U-118-MG = test: CellTiter-Glo proliferation and viability assay; format: cell-based; settings: Homo sapiens
CaOV-3 = test: CellTiter-Glo proliferation and viability assay; format: cell-based; settings: Homo sapiens
NCI-H2009 = test: CellTiter-Glo proliferation and viability assay; format: cell-based; settings: Homo sapiens
NCI-H838 = test: CellTiter-Glo proliferation and viability assay; format: cell-based; settings: Homo sapiens
C3A = test: CellTiter-Glo proliferation and viability assay; format: cell-based; settings: Homo sapiens
MDA-MB-436 = test: CellTiter-Glo proliferation and viability assay; format: cell-based; settings: Homo sapiens
MOLT-4 = test: CellTiter-Glo proliferation and viability assay; format: cell-based; settings: Homo sapiens
NCI-H1155 = test: CellTiter-Glo proliferation and viability assay; format: cell-based; settings: Homo sapiens
NCI-H1573 = test: CellTiter-Glo proliferation and viability assay; format: cell-based; settings: Homo sapiens
NCI-H1793 = test: CellTiter-Glo proliferation and viability assay; format: cell-based; settings: Homo sapiens
PLC-PRF-5 = test: CellTiter-Glo proliferation and viability assay; format: cell-based; settings: Homo sapiens
SK-OV-3 = test: CellTiter-Glo proliferation and viability assay; format: cell-based; settings: Homo sapiens
[5] = tested on: SK-MeI-2 cells harboring N-Ras mutation Q61R, and B-Raf wild type; test: CellTiter-Glo proliferation and viability assay; format: cell-based; settings: Homo sapiens; SK-MeI-2, CellTiter-Glo; read-out: cell proliferation and viability IC50
A375res cells = test: CellTiter-Glo proliferation and viability assay in vemurafenib-resistant cells; format: cell-based, human; settings: Homo sapiens, A375res cells
[6] = tested on: phospho-MEK and phospho-ERK in A375 cells; test: Immunoblotting (Western Blot) analysis of phospho-MEK and phospho-ERK; format: cell-based, human
Procedure: Testing is carried out at doses of 0, and 11 serial dilutions ranging from 0.17 to 10000 nM. Protein lysates are generated by treatment of the cells with RIPA lysis buffer from Millipore. Western blotting analysis is performed substantially as described in Yadav et al, Molecular Carcinogenesis, 2011, 50: 346-52. Briefly, SDS-PAGE is performed on cell lysates containing 20 ug of total protein using 4-20% Novex® tri-glycine gradient gels (Invitrogen). Protein is transferred onto […] nitrocellulose membranes using NuPAGE® Transfer Buffer (Invitrogen) and 10% methanol at 100 V, 4° C. for 1 hr. Generally, the primary antibody is used at 1:1000 dilution, and secondary antibody at 1:20000 dilution. Proteins are detected using the Odyssey Infrared Imaging System (Li-COR Biosciences). Antibodies against ERK1/2, phospho-ERK1/2, phospho-MEK1/2, and actin are obtained from Cell Signaling Technology.
Phospho-ERK activity was substantially eliminated at 41 nM.

Bioavailability = settings: in vivo

IC50 [1]: 3 nM | IC50 [2]: 9.7 nM | IC50 [3]: 133 nM | IC50 [4]: 4.9 nM | IC50 (COLO-829; read-out: Abs IC50): 0.05 nM | IC50 (COLO-829; read-out: Rel IC50): 0.04 nM | IC50 (HuH-7): 0.13 nM | IC50 (SW900; read-out: Abs IC50): 0.69 nM | IC50 (SW900; read-out: Rel IC50): 0.23 nM | IC50 (NCI-H1975; read-out: Abs IC50): 0.93 nM | IC50 (NCI-H1975; read-out: Rel IC50): 0.69 nM | IC50 (AGS; read-out: Abs IC50): 1.14 nM | IC50 (AGS; read-out: Rel IC50): 0.34 nM | IC50 (AsPC-1; ASPC1, read-out: Abs IC50): 1.22 nM | IC50 (AsPC-1; ASPC1, read-out: Rel IC50): 0.38 nM | IC50 (CCRF-CEM): 1.5 nM | IC50 (SK-HEP-1): 1.96 nM | IC50 (NCI-H522; read-out: Abs IC50): 4.5 nM | IC50 (NCI-H522; read-out: Rel IC50): 0.22 nM | IC50 (NCI-H2009; read-out: Abs IC50): 11.9 nM | IC50 (NCI-H2009; read-out: Rel IC50): 1.58 nM | IC50 (NCI-H838; read-out: Abs IC50): 13.4 nM | IC50 (NCI-H838; read-out: Rel IC50): 6.97 nM | IC50 (MDA-MB-436; read-out: Abs IC50): > 20 nM | IC50 (MDA-MB-436; read-out: Rel IC50): 0.26 nM | IC50 (MOLT-4; read-out: Abs IC50): > 20 nM | IC50 (MOLT-4; read-out: Rel IC50): 1.21 nM | IC50 (NCI-H1155; read-out: Abs IC50): > 20 nM | IC50 (NCI-H1155; read-out: Rel IC50): 0.47 nM | IC50 (NCI-H1573; read-out: Abs IC50): > 20 nM | IC50 (NCI-H1573; read-out: Rel IC50): 0.99 nM | IC50 (NCI-H1793; read-out: Abs IC50): > 20 nM | IC50 (NCI-H1793; read-out: Rel IC50): 0.36 nM | IC50 (SK-OV-3; read-out: Abs IC50): > 20 nM | IC50 (SK-OV-3; read-out: Rel IC50): 10.8 nM | IC50 [5]: 188 nM | IC50 (A375res cells): 34 nM | bioavailability (Bioavailability): low
SMILES: CNc1ncc2cc(-c3cc(NC(=O)NCCC(C)(C)C)c(F)cc3C)c(C)nc2n1 [Example 1, 1-(3,3-Dimethylbutyl)-3-(2-fluoro-4-methyl-5-(7-methyl-2-(methylamino)pyrido[2,3-d]pyrimidin-6-yl)phenyl)urea]
IC50 (H9; read-out: Abs IC50): 0.33 nM | IC50 (H9; read-out: Rel IC50): 0.19 nM | IC50 (IM-9): 0.38 nM | IC50 (DMS-53): 0.6 nM | IC50 (Hs746T; read-out: Abs IC50): 0.98 nM | IC50 (Hs746T; read-out: Rel IC50): 0.76 nM | IC50 (C8166; read-out: Abs IC50): 1.09 nM | IC50 (C8166; read-out: Rel IC50): 0.56 nM | IC50 (U-118-MG; read-out: Abs IC50): 5.21 nM | IC50 (U-118-MG; read-out: Rel IC50): 0.76 nM | IC50 (CaOV-3; read-out: Abs IC50): 9.58 nM | IC50 (CaOV-3; read-out: Rel IC50): 5.32 nM | IC50 (C3A; read-out: Abs IC50): > 20 nM | IC50 (C3A; read-out: Rel IC50): 0.6 nM | IC50 (PLC-PRF-5; read-out: Abs IC50): > 20 nM | IC50 (PLC-PRF-5; read-out: Rel IC50): 11.7 nM | concentration at which phospho-ERK activity was substantially eliminated [6]: 41 nM | phospho-MEK and phospho-ERK activities [6]: inhibited phospho-MEK and phospho-ERK activities
